Literature values in article PMC9851200, “Multiparameter phenotypic screening for endogenous TFEB and TFE3 translocation identifies novel chemical series modulating lysosome function” (Autophagy, 2022).

Assays:
Parameters in all cases: method as in original PKIS2 published data
[1] = molecular target: kinases (KINOMEscan panel) (Homo sapiens, UniProt P08069); settings: kinase IGF1R; Published KINOMEscan; ref original PKIS2 published data; cited from earlier work
[2] = molecular target: kinases (KINOMEscan panel) (Homo sapiens, UniProt P31749); settings: kinase AKT1; Published KINOMEscan; ref original PKIS2 published data; cited from earlier work
[3] = molecular target: T1, kinases (KINOMEscan panel) (Homo sapiens, UniProt Q04771); settings: ACVR1; Published KINOMEscan; ref original PKIS2 published data; cited from earlier work
T1 sequence (Q04771 21-509): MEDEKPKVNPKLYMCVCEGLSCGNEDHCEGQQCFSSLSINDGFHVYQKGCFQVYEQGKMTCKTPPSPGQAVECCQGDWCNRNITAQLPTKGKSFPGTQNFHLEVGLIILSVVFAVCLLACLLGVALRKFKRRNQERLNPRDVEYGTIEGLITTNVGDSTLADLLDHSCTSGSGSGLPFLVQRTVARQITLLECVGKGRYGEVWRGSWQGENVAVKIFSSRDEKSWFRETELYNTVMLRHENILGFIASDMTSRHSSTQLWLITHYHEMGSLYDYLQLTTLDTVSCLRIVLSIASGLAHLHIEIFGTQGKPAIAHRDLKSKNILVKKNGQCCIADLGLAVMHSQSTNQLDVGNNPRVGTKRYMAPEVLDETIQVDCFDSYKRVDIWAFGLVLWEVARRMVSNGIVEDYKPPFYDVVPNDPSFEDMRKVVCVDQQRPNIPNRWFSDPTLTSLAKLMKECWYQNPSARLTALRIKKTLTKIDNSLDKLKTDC

[4] = molecular target: kinases (KINOMEscan panel) (Homo sapiens, UniProt Q07912); settings: TNK2; Published KINOMEscan; ref original PKIS2 published data; cited from earlier work
[5] = molecular target: kinases (KINOMEscan panel) (Homo sapiens, UniProt Q13557); settings: kinase CAMK2D; Published KINOMEscan; ref original PKIS2 published data; cited from earlier work
[6] = molecular target: kinases (KINOMEscan panel) (Homo sapiens, UniProt Q13627); settings: Published KINOMEscan; ref original PKIS2 published data; cited from earlier work
[7] = molecular target: kinases (KINOMEscan panel) (Homo sapiens, UniProt Q16816); settings: PHKG1; Published KINOMEscan; ref original PKIS2 published data; cited from earlier work
[8] = molecular target: kinases (KINOMEscan panel) (Homo sapiens, UniProt Q86V86); settings: kinase PIM3; Published KINOMEscan; ref original PKIS2 published data; cited from earlier work
[9] = molecular target: T2, kinases (KINOMEscan panel) (Homo sapiens, UniProt Q8TDC3); settings: BRSK1; Published KINOMEscan; ref original PKIS2 published data; cited from earlier work
T2 sequence (Q8TDC3 1-778): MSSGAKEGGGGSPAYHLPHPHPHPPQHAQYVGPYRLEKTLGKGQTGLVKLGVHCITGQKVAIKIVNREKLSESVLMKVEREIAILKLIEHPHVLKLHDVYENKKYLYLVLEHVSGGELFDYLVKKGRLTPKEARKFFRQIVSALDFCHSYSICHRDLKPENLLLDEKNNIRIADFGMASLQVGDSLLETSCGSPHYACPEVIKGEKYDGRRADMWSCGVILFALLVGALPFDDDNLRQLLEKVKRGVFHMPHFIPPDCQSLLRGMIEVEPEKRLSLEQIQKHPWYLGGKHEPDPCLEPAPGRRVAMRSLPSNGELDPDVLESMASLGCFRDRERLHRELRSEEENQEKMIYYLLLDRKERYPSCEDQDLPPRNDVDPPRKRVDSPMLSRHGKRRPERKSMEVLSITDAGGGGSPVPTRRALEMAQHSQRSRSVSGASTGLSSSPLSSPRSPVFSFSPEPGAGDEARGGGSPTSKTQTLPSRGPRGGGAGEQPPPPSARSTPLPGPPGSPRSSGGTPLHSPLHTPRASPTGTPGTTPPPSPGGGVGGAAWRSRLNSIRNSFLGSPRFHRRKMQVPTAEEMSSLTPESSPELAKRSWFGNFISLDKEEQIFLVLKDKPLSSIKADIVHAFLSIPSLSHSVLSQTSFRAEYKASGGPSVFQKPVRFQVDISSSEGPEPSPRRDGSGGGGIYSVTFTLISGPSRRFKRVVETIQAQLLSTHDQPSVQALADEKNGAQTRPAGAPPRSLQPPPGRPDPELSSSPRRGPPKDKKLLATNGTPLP

[10] = molecular target: kinases (KINOMEscan panel) (Homo sapiens, UniProt Q9Y4K4); settings: kinase MAP4K5; Published KINOMEscan; ref original PKIS2 published data; cited from earlier work
Sequence of kinases (KINOMEscan panel) (Homo sapiens, UniProt Q9Y4K4) (Q9Y4K4 whole entry): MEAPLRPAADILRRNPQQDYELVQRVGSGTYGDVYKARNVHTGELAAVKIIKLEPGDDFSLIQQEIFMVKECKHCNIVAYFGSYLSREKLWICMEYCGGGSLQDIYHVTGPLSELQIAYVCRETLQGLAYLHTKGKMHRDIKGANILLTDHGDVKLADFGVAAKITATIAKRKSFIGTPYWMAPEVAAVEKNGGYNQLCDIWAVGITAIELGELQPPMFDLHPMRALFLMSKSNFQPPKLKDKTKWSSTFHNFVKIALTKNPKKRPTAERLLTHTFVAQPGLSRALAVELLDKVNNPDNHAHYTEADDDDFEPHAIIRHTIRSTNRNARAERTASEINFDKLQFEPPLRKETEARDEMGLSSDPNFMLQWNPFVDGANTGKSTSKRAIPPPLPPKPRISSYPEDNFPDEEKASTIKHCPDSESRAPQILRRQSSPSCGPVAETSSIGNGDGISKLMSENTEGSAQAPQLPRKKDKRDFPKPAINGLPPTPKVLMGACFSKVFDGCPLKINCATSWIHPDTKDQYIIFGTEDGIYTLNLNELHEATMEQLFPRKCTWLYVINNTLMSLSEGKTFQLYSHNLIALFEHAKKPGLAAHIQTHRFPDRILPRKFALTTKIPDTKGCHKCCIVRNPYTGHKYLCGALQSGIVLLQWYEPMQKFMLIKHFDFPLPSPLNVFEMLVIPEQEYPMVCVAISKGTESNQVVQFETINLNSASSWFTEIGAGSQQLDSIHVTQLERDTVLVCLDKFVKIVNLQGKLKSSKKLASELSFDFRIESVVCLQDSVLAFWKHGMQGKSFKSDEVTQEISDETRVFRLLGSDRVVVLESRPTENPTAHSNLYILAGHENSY

Sequence of kinases (KINOMEscan panel) (Homo sapiens, UniProt Q16816) (Q16816 whole entry): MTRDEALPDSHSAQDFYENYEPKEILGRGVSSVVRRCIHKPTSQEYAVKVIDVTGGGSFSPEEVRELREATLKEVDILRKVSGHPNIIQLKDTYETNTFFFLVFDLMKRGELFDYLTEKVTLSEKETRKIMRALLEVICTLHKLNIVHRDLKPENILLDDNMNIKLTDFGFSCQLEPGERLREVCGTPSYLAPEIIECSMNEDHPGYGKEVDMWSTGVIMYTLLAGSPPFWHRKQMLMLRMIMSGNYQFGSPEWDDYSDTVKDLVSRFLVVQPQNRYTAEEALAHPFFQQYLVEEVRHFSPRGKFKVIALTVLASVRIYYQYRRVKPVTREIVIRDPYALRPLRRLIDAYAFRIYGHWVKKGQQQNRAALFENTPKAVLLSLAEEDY
Sequence of kinases (KINOMEscan panel) (Homo sapiens, UniProt Q13557) (Q13557 whole entry): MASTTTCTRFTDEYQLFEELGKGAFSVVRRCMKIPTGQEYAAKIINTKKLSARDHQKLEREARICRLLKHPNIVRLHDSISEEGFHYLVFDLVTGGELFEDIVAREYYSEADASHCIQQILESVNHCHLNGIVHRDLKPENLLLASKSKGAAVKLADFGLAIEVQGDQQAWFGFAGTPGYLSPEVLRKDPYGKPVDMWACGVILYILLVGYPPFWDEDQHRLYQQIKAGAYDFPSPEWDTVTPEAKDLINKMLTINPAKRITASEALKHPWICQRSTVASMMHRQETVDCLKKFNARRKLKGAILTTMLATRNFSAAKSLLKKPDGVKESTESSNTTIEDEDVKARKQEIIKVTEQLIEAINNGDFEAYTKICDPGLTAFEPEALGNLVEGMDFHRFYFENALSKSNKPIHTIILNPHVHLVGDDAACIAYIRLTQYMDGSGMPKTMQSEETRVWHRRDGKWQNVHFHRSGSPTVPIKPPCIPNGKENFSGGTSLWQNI
Sequence of kinases (KINOMEscan panel) (Homo sapiens, UniProt Q07912) (Q07912 whole entry): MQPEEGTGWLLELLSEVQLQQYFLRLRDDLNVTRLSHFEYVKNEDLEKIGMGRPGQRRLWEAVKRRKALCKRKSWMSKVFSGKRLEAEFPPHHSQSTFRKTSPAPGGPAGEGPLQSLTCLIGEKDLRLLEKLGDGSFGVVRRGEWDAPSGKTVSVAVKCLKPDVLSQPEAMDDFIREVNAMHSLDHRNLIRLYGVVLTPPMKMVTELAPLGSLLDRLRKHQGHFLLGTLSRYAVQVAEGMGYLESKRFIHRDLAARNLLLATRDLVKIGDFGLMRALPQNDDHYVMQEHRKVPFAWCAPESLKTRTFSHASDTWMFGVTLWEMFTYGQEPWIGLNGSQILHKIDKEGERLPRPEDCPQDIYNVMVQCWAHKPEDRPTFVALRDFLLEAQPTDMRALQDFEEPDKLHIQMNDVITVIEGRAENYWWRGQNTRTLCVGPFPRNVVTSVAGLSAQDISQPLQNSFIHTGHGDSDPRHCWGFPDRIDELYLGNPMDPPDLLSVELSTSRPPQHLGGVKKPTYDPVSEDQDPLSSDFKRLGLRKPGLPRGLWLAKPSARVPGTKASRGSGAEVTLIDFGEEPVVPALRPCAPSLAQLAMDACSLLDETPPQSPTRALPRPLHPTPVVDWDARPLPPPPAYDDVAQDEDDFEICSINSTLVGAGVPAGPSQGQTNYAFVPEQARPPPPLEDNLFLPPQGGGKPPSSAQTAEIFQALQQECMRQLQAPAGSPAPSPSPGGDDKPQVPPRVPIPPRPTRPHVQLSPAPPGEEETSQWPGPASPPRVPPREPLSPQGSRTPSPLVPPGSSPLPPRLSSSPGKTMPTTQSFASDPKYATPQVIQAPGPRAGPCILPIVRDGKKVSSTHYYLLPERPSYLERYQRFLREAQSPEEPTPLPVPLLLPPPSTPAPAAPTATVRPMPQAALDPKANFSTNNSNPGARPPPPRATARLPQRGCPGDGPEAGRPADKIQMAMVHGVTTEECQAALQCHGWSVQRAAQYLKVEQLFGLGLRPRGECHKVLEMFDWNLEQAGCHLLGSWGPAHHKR
Sequence of kinases (KINOMEscan panel) (Homo sapiens, UniProt P31749) (P31749 whole entry): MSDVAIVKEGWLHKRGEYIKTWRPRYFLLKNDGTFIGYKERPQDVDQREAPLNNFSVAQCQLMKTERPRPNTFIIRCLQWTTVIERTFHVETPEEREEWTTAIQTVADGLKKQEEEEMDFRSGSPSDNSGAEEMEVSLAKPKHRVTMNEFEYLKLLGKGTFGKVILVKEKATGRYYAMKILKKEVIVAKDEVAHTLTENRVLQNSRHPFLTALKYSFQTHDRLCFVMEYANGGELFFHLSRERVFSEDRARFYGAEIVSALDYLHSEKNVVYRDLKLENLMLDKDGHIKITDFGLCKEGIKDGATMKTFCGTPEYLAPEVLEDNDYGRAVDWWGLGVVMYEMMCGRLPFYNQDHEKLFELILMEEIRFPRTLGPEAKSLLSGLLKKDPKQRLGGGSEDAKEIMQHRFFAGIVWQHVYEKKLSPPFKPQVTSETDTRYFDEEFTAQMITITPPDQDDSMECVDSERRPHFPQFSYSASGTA
Sequence of kinases (KINOMEscan panel) (Homo sapiens, UniProt P08069) (P08069 31-1367): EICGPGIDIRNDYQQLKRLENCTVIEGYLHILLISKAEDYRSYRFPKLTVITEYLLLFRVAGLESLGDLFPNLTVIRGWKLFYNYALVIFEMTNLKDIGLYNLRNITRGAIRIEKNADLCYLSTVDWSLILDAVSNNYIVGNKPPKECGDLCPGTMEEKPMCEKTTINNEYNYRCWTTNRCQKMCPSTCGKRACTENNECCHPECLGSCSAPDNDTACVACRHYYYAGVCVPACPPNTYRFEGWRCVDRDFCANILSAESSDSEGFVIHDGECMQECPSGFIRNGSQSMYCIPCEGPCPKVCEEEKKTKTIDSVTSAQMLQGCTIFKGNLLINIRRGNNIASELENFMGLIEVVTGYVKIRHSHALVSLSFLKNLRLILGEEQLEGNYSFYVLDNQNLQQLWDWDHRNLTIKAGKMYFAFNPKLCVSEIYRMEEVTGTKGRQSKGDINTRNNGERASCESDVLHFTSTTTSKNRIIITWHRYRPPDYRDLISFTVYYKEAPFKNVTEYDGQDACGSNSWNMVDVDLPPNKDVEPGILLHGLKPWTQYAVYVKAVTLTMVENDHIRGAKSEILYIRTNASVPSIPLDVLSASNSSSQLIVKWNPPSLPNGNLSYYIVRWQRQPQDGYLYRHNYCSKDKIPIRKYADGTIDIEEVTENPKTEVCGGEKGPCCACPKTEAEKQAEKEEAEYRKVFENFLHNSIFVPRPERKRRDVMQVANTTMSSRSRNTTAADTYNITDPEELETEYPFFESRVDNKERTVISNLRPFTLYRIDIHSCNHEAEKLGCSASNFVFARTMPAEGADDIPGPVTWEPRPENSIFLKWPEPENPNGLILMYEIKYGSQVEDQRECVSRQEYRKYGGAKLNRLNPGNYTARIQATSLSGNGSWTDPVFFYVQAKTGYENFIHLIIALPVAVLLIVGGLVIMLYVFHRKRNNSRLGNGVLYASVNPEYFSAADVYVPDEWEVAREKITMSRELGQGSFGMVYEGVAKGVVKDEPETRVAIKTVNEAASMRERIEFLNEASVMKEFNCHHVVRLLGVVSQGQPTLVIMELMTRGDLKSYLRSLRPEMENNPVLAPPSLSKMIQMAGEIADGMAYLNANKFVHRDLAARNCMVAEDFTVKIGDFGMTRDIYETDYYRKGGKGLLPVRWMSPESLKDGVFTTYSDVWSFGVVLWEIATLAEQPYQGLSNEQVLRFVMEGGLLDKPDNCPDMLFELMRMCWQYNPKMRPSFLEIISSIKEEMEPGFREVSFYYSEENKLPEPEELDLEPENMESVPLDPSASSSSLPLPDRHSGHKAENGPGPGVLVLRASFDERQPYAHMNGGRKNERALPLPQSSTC

## Cc1cccc(-c2nc(Nc3ccncc3)c3ccccc3n2)n1 [NK215]
[1]
  KINOMEscan IGF1R: 0
[2]
  KINOMEscan AKT1: 20
[3]
  KINOMEscan ACVR1: 15
[4]
  KINOMEscan TNK2: 0
[5]
  KINOMEscan CAMK2D: 7
[6]
  KINOMEscan DYRK1A: 0
[7]
  KINOMEscan PHKG1: 47
[8]
  KINOMEscan PIM3: 0
[9]
  KINOMEscan BRSK1: 0
[10]
  KINOMEscan MAP4K5: 0
